Assay: gradient 5% acetonitrile 3 min, to 50% in 2 min, to 85% in 15 min, held 3 min, 100 µL/min
Settings: column: Zorbax Extend-C18 2.1 x 50 mm; eluents: water / acetonitrile, 0.1% formic acid
How it was run: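 Over 3 months, pure standards in mixtures of ~100 molecules were run by HPLC coupled to a quadrupole time-of-flight mass spectrometer in positive and negative ionization mode. The column was a Zorbax Extend-C18 (2.1 × 50 mm, 1.8 μm) at 100 μL/min, eluted with water and acetonitrile each holding 0.1% formic acid, with 40 μL dead and 900 μL dwell volumes. Retention time was determined from adduct peaks chosen by software and checked manually.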

Row | Structure (SMILES) | RP-LC retention time [s]
1 | O=C(Nc1ccccc1F)C1CCN(C(=O)c2ncn3c2COC(c2ccc(F)cc2)C3)CC1 (centres undefined) | 738
2 | Cc1nc(N2CCOCC2)cc(N2CCN(C(=O)c3cccs3)CC2)n1 | 607
3 | Cc1cc(F)ccc1NC(=O)C1CCCN(c2nc3c(s2)c(C)nn3-c2ccccc2)C1 (centres undefined) | 1140
4 | O=C(NCCCN1CCCC1=O)C(=O)NCCC1=CCCCC1 | 686
5 | Cc1ccn2c(NC(=O)c3cccc(F)c3)c(-c3ccccc3)nc2c1 | 670
6 | CCN(CC)C(=O)CCC1CCCN(c2cc(NC3CC3)ncn2)C1 (centres undefined) | 643
7 | Cn1nc(C(=O)N2CC(N(C3CCOCC3)S(C)(=O)=O)C2)c2ccccc21 | 698
8 | COc1cccc(-c2noc(Cn3ccnc3C)n2)c1OC | 601
9 | COc1ccc(C(C)NC(=O)c2c(C)sc3ccn(CC(C)C)c(=O)c23)cc1 (centres undefined) | 962
10 | COc1ccc(N2CCN(C(=O)Cn3nc4nc(N5CCCC5)ccn4c3=O)CC2)cc1 | 639
11 | CCc1ccc(C(=O)N2CCC3(CC2)N=C(c2ccc(C)cc2)NO3)cc1 | 933
12 | O=C1CC(c2noc(C3CCC3)n2)CN1c1ccccc1 (centres undefined) | 869
13 | Cc1ccc(NC(=O)N2CCC(N3CCN(Cc4ccc(F)cc4)C(=O)C3=O)CC2)cc1F | 770
14 | CN1C2CCCC1CC(NC(=O)c1nn(C)c3ccccc13)C2 (centres undefined) | 640
15 | Cc1ccc2[nH]cc(CCN3CC(C(=O)Nc4nnc(C(C)(C)C)s4)CC3=O)c2c1 (centres undefined) | 801
16 | CCOc1ccc(-n2c(CN3CCN(C(=O)NCCC(C)C)CC3)nc3cccnc32)cc1 | 684
17 | CCc1c(C2CCN(C(=O)c3cc4ccccc4[nH]3)CC2)noc1N | 774
18 | CCc1ccc2[nH]c3c(c(=O)c2c1)CN(CC(=O)Nc1cccc(C#N)c1)CC3 | 626
19 | Cc1nc(-c2noc(-c3cccc(F)c3)n2)cn1CC(=O)Nc1ccc(F)cc1 | 874
20 | Cc1c(CN2CC(F)(F)C[C@H]2COc2ccncc2)cnn1C | 502
21 | Cn1nc(C(F)(F)F)cc1C(=O)N1CCCC1c1cccc(F)c1 (centres undefined) | 976
22 | CCCNC(=O)CCc1nc2ccccc2n(CC(=O)Nc2cccc(CC)c2)c1=O | 845
23 | O=C(Nc1ccc2c(c1)OCO2)N1CCN(c2nc3cccnc3n(Cc3ccccc3)c2=O)CC1 | 1010

Row | Structure (SMILES) | RP-LC retention time [s]
24 | O=C(c1cc(Cl)ccc1F)N1CCc2nc(-c3ccc(Cl)cc3)ncc2C1 | 1150
25 | O=C(CCc1c[nH]c2ccccc12)NCCc1c[nH]c2ccc(Cl)cc12 | 861
26 | O=C(CCC[C@@H]1[C@H]2CCCN3CCC[C@@H](CN1C(=O)c1cccnc1)[C@@H]23)N1CCN(c2ncccn2)CC1 | 578
27 | CCN(CC)C(=O)c1cc(=O)[nH]c2ccccc12 | 624
28 | Cc1ccc(-c2cn3ccn(-c4ccc(F)cc4)c(=O)c3n2)c(C)c1 | 873
29 | COc1ccc(CCNC(=O)C2CCN(C(=O)C3Sc4ccccc4NC3=O)CC2)cc1OC (centres undefined) | 694
30 | Cc1ccnc(N2CCC(C(=O)NCCCN(C)C3CCCCC3)CC2)n1 | 587
31 | Cc1ccc(-c2nc(Nc3ccc(Cl)cc3Cl)sc2CC(=O)O)cc1 | 1180
32 | O=c1c(S(=O)(=O)N2CCCC2)cccn1Cc1cccc(F)c1 | 823
33 | COC(=O)c1cc(OCC(=O)Nc2ccccc2F)c2cc(F)ccc2n1 | 857
34 | CCCCN1CCN(C(=O)c2cn3cc(Cl)ccc3n2)CC1 | 589
35 | O=C(NCCc1ccc(Cl)cc1)C1CCN(C(=O)c2cccn2-c2cccnc2)CC1 | 727
36 | Cc1c(C#N)c2ccccc2n1CC(=O)NC(C)c1ccc2c(c1)OCCCO2 (centres undefined) | 892
37 | Cn1cccc1C(=O)NC(C)(C)c1nc2c(c(C(N)=O)n1)OCCO2 | 608
38 | CCc1cc(C(=O)Nc2cccc(OC)c2)nc2ccnn12 | 985
39 | Cn1c(C2CCN(C(=O)c3cc4c(s3)CCCC4)C2)nc2ccncc21 (centres undefined) | 562
40 | CCN1C(=O)c2cccnc2Sc2cc(NC(=O)COc3ccc(F)c(F)c3)ccc21 | 882
41 | COc1ccc(S(=O)(=O)N2CCCC(C(=O)NCc3ccncc3)C2)cc1OC (centres undefined) | 591
42 | CC(=O)NCC(O)c1ccc([N+](=O)[O-])cc1 (centres undefined) | 661
43 | CN1CC[C@]2(c3cccc(O)c3)Cc3nc4ccccc4cc3C[C@H]2C1 | 572
44 | CCCn1c(=O)c(C)nc2cc(-c3noc(COc4ccc(F)cc4)n3)ccc21 | 1060
45 | COc1ccc(C)cc1NC(=O)[C@@H]1[C@H](c2cc(OC)c(OC)c(OC)c2)c2cc3c(cc2[C@H](O)[C@H]1CO)OCO3 | 795
46 | Cc1cc2ncn(Cc3ccccc3F)c2cc1C | 582

Row | Structure (SMILES) | RP-LC retention time [s]
47 | COc1ccc(C(=O)NCc2ccc3c(c2)OCO3)nn1 | 654
48 | O=C(Cn1nc2c3sc(N4CCCCC4)nc3ncn2c1=O)Nc1ccc(F)cc1Cl | 844
49 | O=C1Nc2cc(C(=O)N3CCN(c4cccc(Cl)c4)CC3)ccc2N2CCCCC12 (centres undefined) | 975
50 | O=C(NC1CC1)C1CCCN(S(=O)(=O)c2c[nH]c(C(=O)N3CCCC3)c2)C1 (centres undefined) | 627
51 | COCc1cc(=O)n(Cc2ccccc2F)c(N2CCCC2)n1 | 790
52 | COc1cc2oc(=O)cc(C)c2cc1[N+](=O)[O-] | 764
53 | COc1ccc(-c2nc3ncccn3c2Nc2ccc(C)c(Cl)c2)cc1 | 821
54 | O=C(c1cc2ccccc2[nH]1)N1CCN(c2cc(-c3cccs3)[nH]n2)CC1 | 832
55 | O=C(NCc1nc2ccccc2n1CCCCOc1ccccc1Cl)c1ccco1 | 660
56 | CSCc1noc(Cn2ccc3ccn(CCN(C)C)c3c2=O)n1 | 597
57 | Cc1ccc(NC(=O)N2CC(c3nc(C(C)C)nn3C)C2)cc1 | 689
58 | c1cc(-c2noc(C3CCCCC3)n2)cc(N2CCOCC2)n1 | 1010
59 | CCOc1ccc(NC(=O)C2CCCN(c3nnc4ccc(Cl)cn34)C2)cc1 (centres undefined) | 683
60 | Cc1cc(NCCCCCCCNc2cc(C)nc3cc(N)ccc23)c2ccc(N)cc2n1 | 612
61 | CCOc1ccc(NC(=O)Cn2c(C)nc3cc4c(cc32)OCCO4)cc1 | 658
62 | CS(=O)(=O)Nc1ccc(C2(C(=O)NCc3cc(F)cc(F)c3)CCCCC2)cc1 | 916
63 | Cc1ccc(-c2cc3n(n2)CCCN(C(=O)CCCC(=O)n2nc(C)c4ccccc42)C3)o1 | 859
64 | CCOC(=O)C1=C(C)NC2=C(C(=O)CCC2)C1c1ccc(OC)c(OC)c1OC (centres undefined) | 727
65 | O=C(NCc1cccnc1)C1c2ccccc2C(=O)N(Cc2ccccc2)C12CCCC2 (centres undefined) | 649
66 | CC(C)(C)NC[C@H](O)COc1cccc2[nH]c(C#N)cc12 | 663
67 | O=C(NCC(=O)N1CCCc2ccccc21)c1ccccc1Cl | 835
68 | CC(C)CCNC(=O)CCC(=O)N1CC2CCCN2c2ccccc21 (centres undefined) | 902
69 | Cc1cc(F)ccc1NC(=O)C1CCCN1S(=O)(=O)c1cc2c(cc1C)NC(=O)C(C)O2 (centres undefined) | 812

Row | Structure (SMILES) | RP-LC retention time [s]
70 | CC1CC(=O)c2cnc(N3CCN(c4ccccn4)CC3)nc2C1 (centres undefined) | 611
71 | CCN(CC)C(=O)c1ccc2c(c1)N(CC(=O)N1CCN(c3ccccn3)CC1)C(=O)CO2 | 574
72 | O=C(Nc1cccc(C(F)(F)F)c1)c1cnc(-c2ccc(F)cc2)nc1-c1ccncc1 | 1060
73 | Cc1sc(-c2cc(C(F)(F)F)on2)cc1S(=O)(=O)N1CCN(c2ccccn2)CC1 | 891
74 | CCc1nnc(-c2ccc(NC(=O)c3cc4ccccc4o3)cc2)o1 | 826
75 | CCOc1ccc(C(=O)NC2CCN(c3cc(-c4ccc(Cl)cc4)[nH]n3)C2)cc1 (centres undefined) | 820
76 | CCCNC(=O)C1Cc2cc(S(=O)(=O)N3CCCCC3)ccc2N1C(=O)CC (centres undefined) | 800
77 | O=C(Cc1nnc(-c2cccc(F)c2)o1)N1CCOCC1 | 651
78 | CCSc1nc2ccc(NS(=O)(=O)c3cc(C)cc(C)c3)cc2s1 | 1120
79 | COc1cc(CCC(=O)N2CCN(c3cc(=O)n(C)c(=O)n3C)CC2)cc(OC)c1OC | 647
80 | Cc1ccccc1-c1noc(Cn2ccn(-c3c(C)cccc3C)c(=O)c2=O)n1 | 923
81 | CCC1CN2C=Nc3oc(C)c(C(=O)Nc4cccc(C(F)(F)F)c4)c3C2=N1 (centres undefined) | 719
82 | CC(C)c1ccc(-c2csc(Nc3ccc(S(N)(=O)=O)cc3)n2)cc1 | 1010
83 | O=C(NCc1ccco1)C(=O)NCC1OCCN1C(=O)c1ccc2c(c1)OCO2 (centres undefined) | 653
84 | O=C(NCCc1ccccc1)Nc1cnc2c(c1)CCC2 | 536
85 | CCOc1ccc(NC(=O)c2cc(C(C)C)n(C3CCS(=O)(=O)C3)n2)cc1 (centres undefined) | 877
86 | Fc1ccc(Cc2nc3nccc(-c4ccsc4)n3n2)cc1 | 905
87 | O=C(c1cccc2[nH]ccc12)N1CCCC1c1nc(-c2cccc(Cl)c2)no1 (centres undefined) | 993
88 | CCOc1ccc(NC(=O)c2cccn2-c2cccnc2)cc1 | 733
89 | CSc1ccc(-c2noc(Cc3nnc(-c4ccc(C)c(C)c4)o3)n2)cc1 | 1190

From the METLIN SMRT retention time set (Domingo-Almenara et al. 2019)
